≈ marks a conversion by molar mass, not a printed value.
How the values were obtained:
[1] = test system: Candida albicans (ATCC 90028); experiment: Antifungal growth inhibition, C. albicans; format: cell-based; details: ATCC90028, twofold serial dilution, max 100 μM, 24 h, read-out: C. albicans Growth Inhibition Spectrum (MIC80)
[2] = test system: M. avium 11; experiment: Growth inhibition dose response against M. avium; format: cell-based; details: Mycobacterium avium, 11, 120 h; 5 days, max 500 μM
[3] = test system: HepG2 (ATCC HB.8065) cells; experiment: MTS cytotoxicity assay, HepG2; details: selectivity index vs M. tuberculosis MIC50
[4] = MTS cytotoxicity assay, HepG2; details: human, HepG2 cells (ATCC HB.8065)
[5] = test system: Klebsiella pneumoniae (ATCC 700603, MDR); experiment: microbe, parasite or virus in culture; format: cell-based; details: ATCC700603, 18 h, read-out: K. pneumoniae Growth Inhibition Spectrum (MIC80)
[6] = test system: Staphylococcus aureus (ATCC 43300, MRSA); experiment: microbe, parasite or virus in culture; format: cell-based; details: 18 h, read-out: S. aureus Growth Inhibition Spectrum (MIC80)
[7] = test system: Red blood cells; experiment: Hemolytic activity (red blood cell lysis assay); details: for RBC SI: selectivity index vs M. tuberculosis MIC50; for RBC HC50: hemolysis, 24 h in PBS, unit not given, same scale as MIC50, i not defined
[8] = test system: M. bovis BCG (ATCC 35734); experiment: microbe, parasite or virus in culture; format: cell-based; details: for MIC50: Mycobacterium tuberculosis variant bovis BCG, 120 h, read-out: M. bovis BCG MIC50, 7H9 broth, 5 days, OD600
[9] = test system: Mycobacterium tuberculosis H37Rv (ATCC 27294); experiment: Growth inhibition dose response against M. tuberculosis; format: cell-based; details: 7H9 broth, OD600, twofold serial dilution from 500 μM
[10] = test system: M. abscessus Bamboo (smooth morphotype); experiment: Growth inhibition dose response against M. abscessus; format: cell-based; details: Mycobacteroides abscessus, 72 h; 3 days, max 500 μM
[11] = test system: Acinetobacter baumannii (ATCC 19606); experiment: Antibacterial growth inhibition, A. baumannii; format: cell-based; details: ATCC19606, twofold serial dilution, max 100 μM, 18 h, read-out: A. baumannii Growth Inhibition Spectrum (MIC80)
[12] = test system: Cryptococcus neoformans (ATCC 208821); experiment: Antifungal growth inhibition, C. neoformans; format: cell-based; details: ATCC208821, twofold serial dilution, max 100 μM, 24 h, resazurin, read-out: C. neoformans Growth Inhibition Spectrum (MIC80)
[13] = test system: Pseudomonas aeruginosa (ATCC 27853); experiment: Antibacterial growth inhibition, P. aeruginosa; format: cell-based; details: ATCC27853, twofold serial dilution, max 100 μM, 18 h, read-out: P. aeruginosa Growth Inhibition Spectrum (MIC80)
[14] = test system: Escherichia coli (ATCC 25922); experiment: Antibacterial growth inhibition, E. coli; format: cell-based; details: ATCC25922, twofold serial dilution, max 100 μM, 18 h, read-out: E. coli Growth Inhibition Spectrum (MIC80)
[15] = test system: A549 (ATCC CCL-185) cells; experiment: MTS cytotoxicity assay, A549; details: selectivity index vs M. tuberculosis MIC50
[16] = MTS cytotoxicity assay, A549; details: human, A549 cells (ATCC CCL-185)

SMILES	MIC80 [1] [µM]	MIC50 [2] [µM]	HepG2 SI [3]	CC50 [4] [µM]	MIC80 [5] [µM]	MIC80 [6] [µM]	RBC SI [7]	M. bovis BCG MIC50 ([8]; 7H9 broth, 5 days, OD600) [µM]	MIC50 [8] [µM]	MIC50 [9] [µM]	MIC50 [10] [µM]	MIC80 [11] [µM]	MIC80 [12] [µM]	MIC80 [13] [µM]	MIC80 [14] [µM]	A549 SI [15]	CC50 [16] [mM]	RBC HC50 [7]
CCNc1nc(C)nc2sc(CC)cc12 [Fragment 1]	> 100	> 500	>24	> 2500	> 100	> 100	>24	4.5	5 (≈ 1.11 µg/mL)	40 (≈ 8.85 µg/mL)	> 500	> 100	> 100	> 100	> 100	>24	> 2.5	–
Clc1ccc(Oc2cnns2)c2ncccc12 [Fragment 2]	> 100	130 (≈ 34.3 µg/mL)	–	200	> 100	> 100	–	–	56 (≈ 14.8 µg/mL)	43 (≈ 11.3 µg/mL)	> 500	> 100	> 100	> 100	> 100	>7	> 2.5	250
COc1cccc2sc(S(C)(=O)=O)nc12 [Fragment 3]	> 100	> 500	–	–	> 100	> 100	>13	–	20 (≈ 4.87 µg/mL)	52 (≈ 12.7 µg/mL)	> 500	> 100	> 100	> 100	> 100	–	–	–
Cc1c(C)n(CC(O)CNC2CCCC2)c2c(Cl)cccc12 (centres unmarked) [Fragment 4]	> 100	53 (≈ 17 µg/mL)	–	45	> 100	> 100	–	–	56 (≈ 18 µg/mL)	55 (≈ 17.6 µg/mL)	125 (≈ 40.1 µg/mL)	> 100	> 100	> 100	> 100	–	0.06	125
O=C(c1cc2cc(F)ccc2s1)N1CCC1 [Fragment 5]	> 100	> 500	>41	> 2500	> 100	> 100	>41	–	68 (≈ 16 µg/mL)	60 (≈ 14.1 µg/mL)	> 500	> 100	> 100	> 100	> 100	>41	> 2.5	–
N#CSC1C=CS(=O)(=O)C1 (centres unmarked) [Fragment 6]	100 (≈ 17.5 µg/mL)	> 500	–	75	> 100	100 (≈ 17.5 µg/mL)	24	–	53 (≈ 9.29 µg/mL)	92 (≈ 16.1 µg/mL)	> 500	100 (≈ 17.5 µg/mL)	> 100	> 100	> 100	11	1	2200
COn1c(-c2ccc(Cl)cc2)nc2ncccc21 [Fragment 7]	> 100	145 (≈ 37.7 µg/mL)	8	850	> 100	> 100	>23	–	19 (≈ 4.93 µg/mL)	104 (≈ 27 µg/mL)	150 (≈ 39 µg/mL)	> 100	> 100	> 100	> 100	17	1.8	–
CC1CC(N)=NN1c1ccc(Cl)cn1 (centres unmarked) [Fragment 8]	100 (≈ 21.1 µg/mL)	275 (≈ 57.9 µg/mL)	7	900	> 100	> 100	>20	–	13 (≈ 2.74 µg/mL)	123 (≈ 25.9 µg/mL)	> 500	100 (≈ 21.1 µg/mL)	> 100	> 100	100 (≈ 21.1 µg/mL)	>20	> 2.5	–
Cc1nc(-c2c[nH]c3ccccc23)cs1 [Fragment 9]	> 100	> 500	4	500	> 100	> 100	>18	–	39 (≈ 8.36 µg/mL)	126 (≈ 27 µg/mL)	> 500	> 100	> 100	> 100	> 100	>20	> 2.5	–
Cc1cc2nc(CN)[nH]c2cc1C [Fragment 10]	> 100	> 500	7	900	> 100	> 100	16	–	53 (≈ 9.29 µg/mL)	131 (≈ 23 µg/mL)	> 500	> 100	> 100	> 100	> 100	15	1.9	2100
